Source: patent US11434242B2, “Dopamine-b-hydroxylase inhibitors” (BIAL-PORTELA & Cª, S.A., priority 2017, dated 2022)

Target: T1, Dopamine beta hydroxylase (Homo sapiens, UniProt P09172)
T1 construct: 125 μl of plasma; tissue Instituto Português do Sangue Transplantação; host or cells: human plasma from healthy donors
T1 sequence (P09172 40-617 limits assumed): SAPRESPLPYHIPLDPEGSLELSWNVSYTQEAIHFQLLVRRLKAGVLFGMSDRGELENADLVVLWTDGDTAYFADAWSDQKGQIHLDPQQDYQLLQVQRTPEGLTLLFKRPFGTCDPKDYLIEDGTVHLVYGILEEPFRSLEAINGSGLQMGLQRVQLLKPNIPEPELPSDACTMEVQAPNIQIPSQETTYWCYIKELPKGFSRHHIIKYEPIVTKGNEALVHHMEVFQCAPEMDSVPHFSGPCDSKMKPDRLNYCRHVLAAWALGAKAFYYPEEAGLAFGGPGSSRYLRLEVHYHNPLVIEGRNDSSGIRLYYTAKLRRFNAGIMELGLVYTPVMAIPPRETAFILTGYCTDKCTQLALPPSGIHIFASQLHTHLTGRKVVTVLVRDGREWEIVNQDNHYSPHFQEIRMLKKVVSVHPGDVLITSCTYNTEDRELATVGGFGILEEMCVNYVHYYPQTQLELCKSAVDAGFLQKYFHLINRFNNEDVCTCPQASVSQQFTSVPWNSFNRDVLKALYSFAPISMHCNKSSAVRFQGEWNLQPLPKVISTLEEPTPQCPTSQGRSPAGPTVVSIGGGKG
Experiment: Dopamine beta hydroxylase activity in human plasma
Type: biochemical
Settings: for Plasma (0.01 μM), activity in % of control: inhibitor 0.01 μM; for Plasma (0.1 μM), activity in % of control: inhibitor 0.1 μM; for Plasma (1 μM), activity in % of control: inhibitor 1 μM
Procedure, shortened: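 Octopamine production from tyramine over 45 min at 37° C, measured photometrically at 330 nm after SCX extraction and periodate oxidation against an octopamine standard curve, indicates plasma DβH activity. Compounds tested at final 10, 100 and 1000 nM in human plasma, pH 5.0 cofactor buffer, 10 min preincubation; results as % of control.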

Compound	Plasma (0.01 μM), activity in % of control	Plasma (0.1 μM), activity in % of control	Plasma (1 μM), activity in % of control
Cl.Cn1c(CCN[C@@H]2CCCOC2)c2n(c1=S)C[C@@]1(c3cc(Br)ccc3F)C[C@@H]21 [Example 331, (5aS,6aR)-5a-(5-bromo-2-fluorophenyl)-2-methyl-1-(2-(((R)-tetrahydro-2H-pyran-3-yl)amino)ethyl)-5,5a,6,6a-tetrahydrocyclopropa[3,4]pyrrolo[1,2-c]imidazole-3(2H)-thione Hydrochloride]	77.4 % of control	50.2 % of control	
O=C(Cc1[nH]c(=S)n2c1[C@@H]1C[C@]1(c1cc(Br)ccc1F)C2)NCC1CC1 [Example 143, 2-((5aS,6aR)-5a-(5-bromo-2-fluorophenyl)-3-thioxo-2,3,5,5a,6,6a-hexahydrocyclopropa[3,4]pyrrolo[1,2-c]imidazol-1-yl)-N-(cyclopropylmethyl)acetamide]		20.1 % of control	0.2 % of control
N#CCNC(=O)Cc1[nH]c(=S)n2c1[C@@H]1C[C@]1(c1cc(Br)ccc1F)C2 [Example 144, 2-((5aS,6aR)-5a-(5-bromo-2-fluorophenyl)-3-thioxo-2,3,5,5a,6,6a-hexahydrocyclopropa[3,4]pyrrolo[1,2-c]imidazol-1-yl)-N-(cyanomethyl)acetamide]		14.7 % of control	0.1 % of control
O=C(Cc1[nH]c(=S)n2c1C[C@H](c1c(F)cccc1F)C2)NC1CCCC1 [Example 76, (R)—N-cyclopentyl-2-(6-(2,6-difluorophenyl)-3-thioxo-2,5,6,7-tetrahydro-3H-pyrrolo[1,2-c]imidazol-1-yl)acetamide]		65.8 % of control	13.1 % of control
CN1CCN(C(=O)Cc2[nH]c(=S)n3c2C[C@H](c2c(F)c(F)cc(F)c2F)C3)CC1 [Example 81, (R)-1-(4-methylpiperazin-1-yl)-2-(6-(2,3,5,6-tetrafluorophenyl)-3-thioxo-2,5,6,7-tetrahydro-3H-pyrrolo[1,2-c]imidazol-1-yl)ethan-1-one]		63.1 % of control	15.9 % of control
CS(=O)(=O)CCNC(=O)Cc1[nH]c(=S)n2c1C[C@@H](c1c(F)ccc(Cl)c1F)C2 [Example 114, (S)-2-(6-(3-chloro-2,6-difluorophenyl)-3-thioxo-2,5,6,7-tetrahydro-3H-pyrrolo[1,2-c]imidazol-1-yl)-N-(2-(methylsulfonyl)ethyl)acetamide]	58.4 % of control	7.5 % of control	
F.Fc1ccc(Br)cc1[C@]12C[C@H]1c1c(CCNC3CC3)[nH]c(=S)n1C2 [Example 187, (5aS,6aR)-5a-(5-bromo-2-fluorophenyl)-1-(2-(cyclopropylamino)ethyl)-5,5a,6,6a-tetrahydrocyclopropa[3,4]pyrrolo[1,2-c]imidazole-3(2H)-thione hydrofluoride]	72.6 % of control	21.6 % of control	
Fc1cc(F)c(F)c([C@H]2Cc3c(CCc4ccccn4)[nH]c(=S)n3C2)c1F [Example 213, (R)-1-(2-(pyridin-2-yl)ethyl)-6-(2,3,5,6-tetrafluorophenyl)-2,5,6,7-tetrahydro-3H-pyrrolo[1,2-c]imidazole-3-thione]	105.9 % of control	66.6 % of control	
COCCNC(=O)Cc1[nH]c(=S)n2c1C[C@@H](c1c(F)ccc(Cl)c1F)C2 [Example 107, (S)-2-(6-(3-chloro-2,6-difluorophenyl)-3-thioxo-2,5,6,7-tetrahydro-3H-pyrrolo[1,2-c]imidazol-1-yl)-N-(2-methoxyethyl)acetamide]		40.1 % of control	6.3 % of control
O=C(Cc1[nH]c(=S)n2c1C[C@@H](c1c(F)ccc(Br)c1F)C2)NCc1cccnc1 [Example 124, (S)-2-(6-(3-bromo-2,6-difluorophenyl)-3-thioxo-2,5,6,7-tetrahydro-3H-pyrrolo[1,2-c]imidazol-1-yl)-N-(pyridin-3-ylmethyl)acetamide]	42.8 % of control	3.3 % of control	

The remaining lines, values ahead:

Plasma (0.01 μM), activity in % of control	Plasma (0.1 μM), activity in % of control	Plasma (1 μM), activity in % of control	Compound
112.0 % of control	79.4 % of control		Fc1ccc(F)c([C@H]2Cc3c(CCN[C@@H]4CCOC4)[nH]c(=S)n3C2)c1F [Example 470]
106.2 % of control	63.2 % of control		Cn1c(CC(=O)N[C@@H]2CCOC2)c2n(c1=S)C[C@H](c1c(F)ccc(F)c1F)C2 [Example 412, 2-((S)-2-methyl-3-thioxo-6-(2,3,6-trifluorophenyl)-2,5,6,7-tetrahydro-3H-pyrrolo[1,2-c]imidazol-1-yl)-N—((R)-tetrahydrofuran-3-yl)acetamide]
89.5 % of control	20.8 % of control		O=C(Cc1[nH]c(=S)n2c1C[C@@H](c1c(F)ccc(Cl)c1F)C2)N1CCOCC1 [Example 363, (S)-2-(6-(3-chloro-2,6-difluorophenyl)-3-thioxo-2,5,6,7-tetrahydro-3H-pyrrolo[1,2-c]imidazol-1-yl)-1-morpholinoethan-1-one]
72.3 % of control	12.5 % of control		Cc1nnc(NC(=O)Cc2c3n(c(=S)n2C)C[C@H](c2c(F)ccc(Cl)c2F)C3)o1 [Example 349, (S)-2-(6-(3-chloro-2,6-difluorophenyl)-2-methyl-3-thioxo-2,5,6,7-tetrahydro-3H-pyrrolo[1,2-c]imidazol-1-yl)-N-(5-methyl-1,3,4-oxadiazol-2-yl)acetamide]
89.6 % of control	36.7 % of control		O=C(Cc1[nH]c(=S)n2c1C[C@@H](c1c(F)ccc(Cl)c1F)C2)N1CCC(F)(F)CC1 [Example 111, (S)-2-(6-(3-chloro-2,6-difluorophenyl)-3-thioxo-2,5,6,7-tetrahydro-3H-pyrrolo[1,2-c]imidazol-1-yl)-1-(4,4-difluoropiperidin-1-yl)ethan-1-one]
57.2 % of control	8.4 % of control		CN(C(=O)Cc1c2n(c(=S)n1C)C[C@@]1(c3cc(Br)ccc3F)C[C@@H]21)C1CCOC1 (stereo partly drawn) [Example 440, 2-((5aS,6aR)-5a-(5-bromo-2-fluorophenyl)-2-methyl-3-thioxo-2,3,5,5a,6,6a-hexahydrocyclopropa[3,4]pyrrolo[1,2-c]imidazol-1-yl)-N-methyl-N-(tetrahydrofuran-3-yl)acetamide]
63.3 % of control	14.2 % of control		CC(C)NCCCc1[nH]c(=S)n2c1C[C@H](c1c(F)ccc(F)c1F)C2 [Example 472, (R)-1-(3-(isopropylamino)propyl)-6-(2,3,6-trifluorophenyl)-2,5,6,7-tetrahydro-3H-pyrrolo[1,2-c]imidazole-3-thione hydrofluoride]
98.4 % of control	54.2 % of control		Cn1c(CCC(=O)N2CCCC2)c2n(c1=S)C[C@@H](c1c(F)cccc1F)C2 [Example 264, (R)-3-(6-(2,6-difluorophenyl)-2-methyl-3-thioxo-2,5,6,7-tetrahydro-3H-pyrrolo[1,2-c]imidazol-1-yl)-1-(pyrrolidin-1-yl)propan-1-one]
73.8 % of control	3.4 % of control		Cn1c(CC(=O)Nc2ncco2)c2n(c1=S)C[C@@H](c1c(F)ccc(F)c1F)C2 [Example 286, (R)-2-(2-methyl-3-thioxo-6-(2,3,6-trifluorophenyl)-2,5,6,7-tetrahydro-3H-pyrrolo[1,2-c]imidazol-1-yl)-N-(oxazol-2-yl)acetamide]
	44.1 % of control	6.1 % of control	CC(C)NC(=O)Cc1[nH]c(=S)n2c1C[C@@H](c1c(F)ccc(Cl)c1F)C2 [Example 88, (S)-2-(6-(3-chloro-2,6-difluorophenyl)-3-thioxo-2,5,6,7-tetrahydro-3H-pyrrolo[1,2-c]imidazol-1-yl)-N-isopropylacetamide]
59.5 % of control	20.6 % of control		Cn1c(CC(=O)O)c2n(c1=S)C[C@H](c1c(F)ccc(Cl)c1F)C2 [Example 424, (S)-2-(6-(3-chloro-2,6-difluorophenyl)-2-methyl-3-thioxo-2,5,6,7-tetrahydro-3H-pyrrolo[1,2-c]imidazol-1-yl)acetic acid]
66.5 % of control	36.6 % of control		CN(C(=O)Cc1c2n(c(=S)n1C)C[C@H](c1c(F)ccc(F)c1F)C2)C1COC1 [Example 435, (S)—N-methyl-2-(2-methyl-3-thioxo-6-(2,3,6-trifluorophenyl)-2,5,6,7-tetrahydro-3H-pyrrolo[1,2-c]imidazol-1-yl)-N-(oxetan-3-yl)acetamide]
